Assay results as given in PubChem BioAssay (NCI).
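Step 1: Grow cells in 96-well plates. Step 2: Expose to compound for 48 hours at 5 concentrations. Step 3: Interpolate endpoints linearly; if unreached, use highest concentration. At the TGI there is no net growth.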

Columns and labels:
Assay in all cases: NCI tumour cell line growth inhibition, 48 h
[1] = tested on: SF-268 CNS
[2] = tested on: UACC-62 melanoma
[3] = tested on: ACHN renal
[4] = tested on: SN12C renal
[5] = tested on: UO-31 renal
[6] = tested on: RXF-631 renal
[7] = tested on: NCI-H226 lung
[8] = tested on: SNB-75 CNS
[9] = tested on: MALME-3M melanoma
[10] = tested on: OVCAR-8 ovarian
[11] = tested on: UACC-257 melanoma
[12] = tested on: TK-10 renal
[13] = tested on: OVCAR-3 ovarian
[14] = tested on: SK-OV-3 ovarian
[15] = tested on: OVCAR-5 ovarian
[16] = tested on: SR leukemia
[17] = tested on: MOLT-4 leukemia
[18] = tested on: HOP-92 NSCLC
[19] = tested on: RPMI-8226 leukemia
[20] = tested on: U251 CNS
[21] = tested on: KM20L2 colon
[22] = tested on: NCI-H522 lung
[23] = tested on: NCI-H460 lung
[24] = tested on: CAKI-1 renal
[25] = tested on: LXFL 529 NSCLC
[26] = tested on: A549 NSCLC
[27] = tested on: SNB-19 CNS
[28] = tested on: HCT-116 colon
[29] = tested on: HCC-2998 colon
[30] = tested on: KM12 colon
[31] = tested on: IGROV1 ovarian
[32] = tested on: M14 melanoma
[33] = tested on: DLD-1 colon
[34] = tested on: SK-MEL-2 melanoma
[35] = tested on: HT29 colon
[36] = tested on: SF-295 CNS
[37] = tested on: SK-MEL-28 melanoma
[38] = tested on: 786-0 renal
[39] = tested on: XF 498 CNS
[40] = tested on: NCI-H23 lung
[41] = tested on: HCT-15 colon
[42] = tested on: SNB-78 CNS
[43] = tested on: K-562 leukemia
[44] = tested on: OVCAR-4 ovarian
[45] = tested on: LOX IMVI melanoma
[46] = tested on: HOP-62 NSCLC
[47] = tested on: COLO 205 colon
[48] = tested on: SF-539 CNS
[49] = tested on: SW-620 colon
[50] = tested on: HL-60(TB) leukemia
[51] = tested on: DMS 114 small cell lung
[52] = tested on: RXF 393 renal
[53] = tested on: DMS 273 small cell lung
[54] = tested on: A498 renal
[55] = tested on: CCRF-CEM leukemia
[56] = tested on: M19-MEL melanoma
[57] = tested on: HOP-18 NSCLC
[58] = tested on: SK-MEL-5 melanoma
[59] = tested on: EKVX NSCLC

CCOC(=O)C1=C(NC(C)(C)C)OCC1=O
TGI [1]: > 100 µM
TGI [2]: > 100 µM
TGI [3]: > 100 µM
TGI [4]: > 100 µM
TGI [5]: > 100 µM
TGI [6]: > 100 µM
TGI [7]: > 100 µM
TGI [8]: > 100 µM
TGI [9]: > 100 µM
TGI [10]: > 100 µM
TGI [11]: > 100 µM
TGI [12]: > 100 µM
TGI [13]: > 100 µM
TGI [14]: > 100 µM
TGI [15]: > 100 µM
TGI [16]: > 100 µM
TGI [17]: > 100 µM
TGI [18]: > 100 µM
TGI [19]: > 100 µM
TGI [20]: > 100 µM
TGI [21]: > 100 µM
TGI [22]: > 100 µM
TGI [23]: > 100 µM
TGI [24]: > 100 µM
TGI [25]: > 100 µM
TGI [26]: > 100 µM
TGI [27]: > 100 µM
TGI [28]: > 100 µM
TGI [29]: > 100 µM
TGI [30]: > 100 µM
TGI [31]: > 100 µM
TGI [32]: > 100 µM
TGI [33]: > 100 µM
TGI [34]: > 100 µM
TGI [35]: > 100 µM
TGI [36]: > 100 µM
TGI [37]: > 100 µM
TGI [38]: > 100 µM
TGI [39]: > 100 µM
TGI [40]: > 100 µM
TGI [41]: > 100 µM
TGI [42]: > 100 µM
TGI [43]: > 100 µM
TGI [44]: > 100 µM
TGI [45]: > 100 µM
TGI [46]: > 100 µM
TGI [47]: > 100 µM
TGI [48]: > 100 µM
TGI [49]: > 100 µM
TGI [50]: > 100 µM

CCOC(=O)c1nc2ccc(Cl)cc2c2c1CCO2
TGI [1]: > 100 µM
TGI [2]: > 100 µM
TGI [3]: > 100 µM
TGI [4]: > 100 µM
TGI [7]: > 100 µM
TGI [8]: 88.6 µM
TGI [9]: > 100 µM
TGI [10]: > 100 µM
TGI [11]: > 100 µM
TGI [51]: > 100 µM
TGI [12]: > 100 µM
TGI [13]: > 100 µM
TGI [14]: > 100 µM
TGI [15]: > 100 µM
TGI [17]: > 100 µM
TGI [20]: > 100 µM
TGI [52]: > 100 µM
TGI [21]: > 100 µM
TGI [22]: > 100 µM
TGI [23]: > 100 µM
TGI [24]: > 100 µM
TGI [25]: > 100 µM
TGI [26]: > 100 µM
TGI [53]: > 100 µM
TGI [27]: > 100 µM
TGI [54]: > 100 µM
TGI [55]: > 100 µM
TGI [28]: > 100 µM
TGI [29]: > 100 µM
TGI [30]: > 100 µM
TGI [31]: > 100 µM
TGI [32]: > 100 µM
TGI [33]: > 100 µM
TGI [56]: > 100 µM
TGI [35]: > 100 µM
TGI [36]: > 100 µM
TGI [37]: > 100 µM
TGI [38]: > 100 µM
TGI [39]: > 100 µM
TGI [40]: > 100 µM
TGI [41]: > 100 µM
TGI [42]: > 100 µM
TGI [57]: > 100 µM
TGI [43]: > 100 µM
TGI [44]: > 100 µM
TGI [45]: > 100 µM
TGI [46]: > 100 µM
TGI [47]: > 100 µM
TGI [48]: > 100 µM
TGI [58]: > 100 µM
TGI [49]: > 100 µM
TGI [59]: > 100 µM
TGI [50]: > 100 µM
